According to patent publication US20030017567A1, “Biological sample processing methods and compositions that include surfactants” (3M Innovative Properties Company, priority 2001, published 2003):
Marks after values point to notes of the source that are not given here.

How the values were obtained:
[1] = Laser stability / photobleaching of dye solution on repeated laser exposure; format: physicochemical; details: for Laser Stability: 25 exposures
Experimental: An 813-nm diode laser source at 1.2W (1.9A) (Opto Power Corp., Tucson, Ariz. ) was used to heat a 10μL volume of near-IR dye at a concentration (0.1 mg/mL for 785 WS, 0.2 mg/iL for SDA 8080) to yield a 35° C. rise in temperature. The laser was manually turned on long enough for the temperature in a 10-μL well to increase by 35° C. (1-3 seconds) and was manually turned off when that level was attained. The temperature data was obtained using a thermocouple in the well, and the transmittance data was obtained via a power meter whose signals were digitized and graphically interpreted.
In another experiment, the 10 μL well was used to see if the dye/surfactant mixture could withstand laser cycling over a period of 30 cycles. The laser power was systematically varied from 60° C. to 94° C., 30 times.
Unlike in Example 8, some dyes and dye/surfactant complexes undergo photodegradation when exposed to laser beam. […] Specifically, in the case of 785 WS/BRIJ-97, the addition of ascorbic acid (typically 5 mg/mL) helped reduce the amount of photobleaching from 100% to 20% after 30 cycles. In some circumstances, rapid/controlled photodegradation may be desired. […] This would allow DNA tags (fluorescent or vis/IR) to be monitored at the end of the PCR reaction.
Vitamin E-TPGS has both surfactant as well as antioxidant properties.

[2] = target: T1, AMPLITAQ DNA polymerase (Taq polymerase) (Thermus aquaticus, UniProt P19821); test: PCR amplification of PERV protease fragment (327 bp) in presence of dye/surfactant; product on agarose gel or quantitated with Agilent 2100 Bioanalyzer; format: biochemical; details: for effect of dye on PCR (Example 6): dye at typical concentrations of 0.1 or 0.2 mg/mL, without surfactant, agarose gel
T1 construct: purchased Applied Biosystems, Foster City, Calif
Experimental: Typically, a fresh stock solution of 5 milligrams (mg) of a water-insoluble near-infrared dye (NIR dye) was dissolved in 50 microliters (μL) of dimethylsulfoxide (DMSO) and brought up in water to a final volume of 1 milliliter (mL). This was then diluted out to various concentrations of dye. The diluted dye (typically 0.2 mg/mL) was then added to a surfactant solution (typically 4 wt-%) to form a complex. The complex was added to a PCR reaction.
PCR reactions were set up for a conserved sequence (327 bp) in the protease region of the genome of porcine endogenous retrovirus using a plasmid containing the PERV protease fragment, a forward primer and a reverse primer designed using a primer express program from Applied Biosystems, and AMPLITAQ DNA polymerase cocktail (commercially available from Applied Biosystems, Foster City, Calif.) and cycled in a thermocycler (9700, Applied Biosystems). The PCR reactions were typically carried out in 25-μL volumes. The NIR dye/surfactant mixture was added to the PCR cocktail to give the desired concentration of dye and surfactant in a total volume of 25 μL. A typical PCR cocktail contains 10x buffer, 2.5 μL; dNTPs, 2.0 μL (200 μM of each); forward primer, 0.5 μL (200 nM); reverse primer, 0.5 μL (200 nM); template DNA, 1.0 (1 ng/μL); Amplitaq, 0.25 μL (1.25 units); sterile water, 18.25 μL.
The products of PCR reactions were run on 1% agarose gel containing ethidium bromide and visualized using an ALPHA IMAGER (Alpha Innotech Corp., San Leandro, Calif.). […] However, a higher concentration of dye (0.1 mg/mL) for effective heating was needed. Thus, for all further PCR experiments, a dye concentration of 0.1 mg/mL or higher was used. […] Taq polymerase was tested from different manufacturers (Promega Corp., Madison, Wis.; Roche Biochemicals, Indianapolis, Ind.; Eppendorf, Scientific Inc., Westbury, N.Y.; Sigma, St. Louis, Mo.) and all the Taq polymerases were inhibited by 785 WS and SDA 8080.
In order to find out the optimum concentration of surfactant for PCR with NIR dye (785 WS and SDA 8080), the surfactant concentration in PCR reaction was varied from 0.1 wt-% to 4 wt-%. The PCR product formed was quantitated using DNA 7500 Labchip kit in Agilent 2100 Bioanalyzer (Agilent Inc, Paloalto, Calif.). The results shown in Table 3 indicate that increasing the concentration of surfactant relative to dye assists in the formation of PCR product.
A variety of dyes (NIR dyes such as IR782, IR768, SDA 2141, SDA8327, IR 830 WS, fluorescent dyes like oligreen and visible dyes like dichlorophenol, indophenol, saffranin, crystal violet, and commercially available food coloring) at typical concentrations of 0.1 or 0.2 mg/mL were allowed to interact with 4 wt-% PLURONIC F127 and each mixture was added to the PCR cocktail. The reaction was set up to amplify PERV protease fragment as described in Example 2 and the products of the reaction were analyzed by agarose gel electrophoresis.

[3] = Thermal degradation of dye: absorbance at beginning and end of thermal cycling; format: physicochemical
Excerpt: The dyes SDA 8080 and 785 WS were mixed with a variety of surfactants such as PLURONIC F-127, TWEEN-20, TRITON X-100, NP-40, BRIJ-97 and cycled in a thermocycler (9700, Applied Biosystems). Absorbance readings were taken at the beginning and end of thermal cycling using HP Chem Station (HP 8453, Agilent Technologies, Palo Alto, Calif.) at 785 nm for the 785 WS dye and 1040 nm for the SDA 8080 dye. […] Thus, the surfactant helps to protect thermal degradation of the dye.

[4] = 785 WS 0.1 mg/mL, surfactant 0.1 wt %
[5] = 785 WS 0.1 mg/mL, surfactant 0.5 wt %
[6] = 785 WS 0.1 mg/mL, surfactant 1 wt %
[7] = 785 WS 0.1 mg/mL, surfactant 2 wt %
[8] = 785 WS 0.1 mg/mL, surfactant 4 wt %
[9] = SDA 8080 0.2 mg/mL, surfactant 0.5 wt %
[10] = SDA 8080 0.2 mg/mL, surfactant 1 wt %
[11] = SDA 8080 0.2 mg/mL, surfactant 2 wt %
[12] = SDA 8080 0.2 mg/mL, surfactant 4 wt %
[13] = surfactant 4 wt %, 785 WS 0 mg/mL (no dye), data from a different experiment under identical PCR conditions
[14] = surfactant 4 wt %, SDA 8080 0 mg/mL (no dye), data from a different experiment under identical PCR conditions
[15] = 785 WS (0.1 mg/mL), surfactant 0.1 wt %, absorbance at 785 nm
[16] = 785 WS (0.1 mg/mL), surfactant 4 wt %, absorbance at 785 nm
[17] = SDA 8080 (0.2 mg/mL), surfactant 0.1 wt %, absorbance at 1040 nm
[18] = SDA 8080 (0.2 mg/mL), surfactant 4 wt %, absorbance at 1040 nm
[19] = 785 WS (0.1 mg/mL), surfactant 20 wt %, * can be made laser stable after addition of antioxidant
[20] = SDA 8080 (0.2 mg/mL), surfactant 20 wt %
[21] = SDA 8080 0.2 mg/mL, surfactant 0.1 wt %
[22] = 785 WS (0.1 mg/mL), surfactant 0.5 wt %, absorbance at 785 nm
[23] = 785 WS (0.1 mg/mL), surfactant 2 wt %, absorbance at 785 nm
[24] = SDA 8080 (0.2 mg/mL), surfactant 0.5 wt %, absorbance at 1040 nm
[25] = SDA 8080 (0.2 mg/mL), surfactant 2 wt %, absorbance at 1040 nm

T1 sequence (P19821 whole entry, the tested form may be a part): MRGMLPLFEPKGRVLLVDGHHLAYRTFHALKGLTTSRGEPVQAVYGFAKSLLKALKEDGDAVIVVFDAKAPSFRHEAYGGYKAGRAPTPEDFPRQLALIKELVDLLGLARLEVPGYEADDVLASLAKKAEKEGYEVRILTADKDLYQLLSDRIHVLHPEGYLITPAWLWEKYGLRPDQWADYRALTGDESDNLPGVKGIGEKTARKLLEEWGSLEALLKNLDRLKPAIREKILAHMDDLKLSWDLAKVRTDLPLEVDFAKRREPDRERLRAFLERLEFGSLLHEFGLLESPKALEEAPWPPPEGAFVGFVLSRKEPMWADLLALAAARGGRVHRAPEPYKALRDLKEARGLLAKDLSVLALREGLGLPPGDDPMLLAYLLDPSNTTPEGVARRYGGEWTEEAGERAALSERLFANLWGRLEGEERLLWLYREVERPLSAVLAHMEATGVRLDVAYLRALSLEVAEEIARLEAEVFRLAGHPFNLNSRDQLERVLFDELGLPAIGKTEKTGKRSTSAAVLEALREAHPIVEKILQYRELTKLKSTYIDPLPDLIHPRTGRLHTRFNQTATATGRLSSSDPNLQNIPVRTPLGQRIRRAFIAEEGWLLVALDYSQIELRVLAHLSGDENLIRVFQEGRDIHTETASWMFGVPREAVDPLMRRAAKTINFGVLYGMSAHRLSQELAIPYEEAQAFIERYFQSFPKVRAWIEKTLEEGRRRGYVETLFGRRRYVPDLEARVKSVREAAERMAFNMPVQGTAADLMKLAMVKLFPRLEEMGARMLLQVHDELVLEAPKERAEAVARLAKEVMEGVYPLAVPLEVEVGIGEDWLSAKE

Compound | effect of dye on PCR (Example 6) [2] | PCR Product [2, 4] [ng/µL] | PCR Product [2, 5] [ng/µL] | PCR Product [2, 6] [ng/µL] | PCR Product [2, 7] [ng/µL] | PCR Product [2, 8] [ng/µL] | PCR Product [2, 9] [ng/µL] | PCR Product [2, 10] [ng/µL] | PCR Product [2, 11] [ng/µL] | PCR Product [2, 12] [ng/µL] | Thermal Degradation [3, 16] [%] | Thermal Degradation [3, 18] [%] | also measured
O=C1O[C@H]([C@@H](O)CO)C(O)=C1O [ascorbic acid] | – | – | – | – | – | – | – | – | – | – | – | – | effect of antioxidant on photobleaching of 785 WS ([1]; added to virtually any of the surfactants tested with 785 WS): reduced photobleaching significantly
CN(C)c1ccc(C(=C2C=CC(=[N+](C)C)C=C2)c2ccc(N(C)C)cc2)cc1 [crystal violet] | inhibited PCR | – | – | – | – | – | – | – | – | – | – | – | –
Cc1cc2nc3cc(C)c(N)cc3[n+](-c3ccccc3)c2cc1N.[Cl-] [saffranin] | inhibited PCR | – | – | – | – | – | – | – | – | – | – | – | –
Nonyl phenoxy poly (ethyleneoxy) ethanol [NP-40] | – | 0 | 0 | 0 | 0.3 | 3.8 | 23.3 | 23.7 | 17.2 | 18 | 27.4 | 48.8 | PCR Product ([2]; SDA 8080 0.1 mg/mL, surfactant 0.1 wt %): 0 ng/µL; PCR Product [2, 13]: 24.2* ng/μL; PCR Product [2, 14]: 24.2* ng/μL; Thermal Degradation [3, 15]: 20.2%; Thermal Degradation [3, 17]: 82.1%
Octyl phenoxy polyethoxyethanol [TRITON X-100] | – | 0 | 0.1 | 0.4 | 2.2 | 1.3 | 2.3 | 1.4 | 1.9 | 1.1 | 4.6 | 0.0 | Laser Stability [1, 19]: −* (greater than 20% degradation in dye absorbance over a period of 25 exposures); Laser Stability [1, 20]: + (less than a 20% degradation in dye absorbance over a period of 25 exposures); PCR Product [2, 21]: 0 ng/µL; PCR Product [2, 13]: 23.8* ng/μL; PCR Product [2, 14]: 23.8* ng/μL; Thermal Degradation [3, 15]: 24.8%; Thermal Degradation [3, 17]: 76.0%; Thermal Degradation ([3]; SDA 8080 (0.2 mg/mL), surfactant 20 wt %, absorbance at 1040 nm): 7.1%
Polyoxyethylene (10) oleyl ether [BRIJ 97] | – | 0 | 0 | 0 | 13.8 | 21.9 | 19.3 | 23.5 | 25.5 | 22.6 | 96.0 | 6.0 | Laser Stability [1, 19]: −* (greater than 20% degradation in dye absorbance over a period of 25 exposures); Laser Stability [1, 20]: + (less than a 20% degradation in dye absorbance over a period of 25 exposures); PCR Product [2, 21]: 18.7 ng/µL; Thermal Degradation ([3]; 785 WS (0.1 mg/mL), surfactant 0.01 wt %, absorbance at 785 nm): 79.0%; Thermal Degradation [3, 22]: 95.0%; Thermal Degradation ([3]; 785 WS (0.1 mg/mL), surfactant 1 wt %, absorbance at 785 nm): 94.5%; Thermal Degradation [3, 23]: 94.5%; Thermal Degradation ([3]; SDA 8080 (0.2 mg/mL), surfactant 0.01 wt %, absorbance at 1040 nm): 86.2%; Thermal Degradation [3, 24]: 67.7%; Thermal Degradation ([3]; SDA 8080 (0.2 mg/mL), surfactant 1 wt %, absorbance at 1040 nm): 50.0%; Thermal Degradation [3, 25]: 29.4%
d-Alpha tocopheryl polyethylene glycol 1000 [Vitamin E TPGS] | – | – | – | – | – | – | – | – | – | – | 5.3 | 92.3 | Laser Stability ([1]; 785 WS (0.1 mg/mL), surfactant 4 wt %, * can be made laser stable after addition of antioxidant): + (less than a 20% degradation in dye absorbance over a period of 25 exposures); light stability ([1]; Vitamin E-TPGS 4 wt-% added to 785 WS 0.1 mg/mL, after 30 cycles of laser exposure): significantly increased; Thermal Degradation [3, 22]: 6.5%; Thermal Degradation [3, 23]: 4.0%; Thermal Degradation [3, 24]: 89.5%; Thermal Degradation [3, 25]: 88.9%
dichlorophenol | inhibited PCR | – | – | – | – | – | – | – | – | – | – | – | –
